These results are taken from BindingDB's records for doi:10.3109/14756366.2012.729827 (National University of Mexico City, 2013).

For the experiment, the target named is T1, 3-oxo-5-alpha-steroid 4-dehydrogenase 2 (Homo sapiens, UniProt P31213).
T1 sequence (P31213 whole entry): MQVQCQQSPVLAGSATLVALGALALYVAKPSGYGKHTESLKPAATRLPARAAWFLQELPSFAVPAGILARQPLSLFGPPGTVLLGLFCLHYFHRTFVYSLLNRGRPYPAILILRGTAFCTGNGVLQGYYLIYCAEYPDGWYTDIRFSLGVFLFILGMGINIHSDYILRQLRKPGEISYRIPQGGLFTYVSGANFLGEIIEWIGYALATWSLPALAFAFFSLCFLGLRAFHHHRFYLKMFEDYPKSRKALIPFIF
Nature of the experiment: 5α-R2 Activity Assay. The protocol:
The activity of the isozyme 5α-R type 2 was assayed as previously described [Hirosumi et al., J. Steroid Biochem. Mol. Biol., 52:357-363; Bratoeff et al., J. Steroid Biochem. Mol. Biol., 107:48-56].

Turning to `C[C@]12CC[C@H](OC(=O)c3ccc(F)cc3)CC1=CCC1C2CC[C@]2(C)C(=O)CCC12` (stereo partly drawn) [17-Oxaandrost-5-ene-3β-yl-p-fluorobenzoate (2)], the IC50 (as a rule, the concentration that inhibits the measured activity by half) was found to be 3.58 nM.
Next, `C[C@]12CC[C@H](OC(=O)c3ccccc3)CC1=CCC1C2CC[C@]2(C)C(=O)CCC12` (stereo partly drawn) [17-Oxaandrost-5-ene-3β-yl-benzoate (1)]: over 100000 nM.
